Measured values reported in patent EP1123702A1, “ANALGESICS” (Eisai Co., Ltd., priority 1998, dated 2000).
Counter-ions that a name gives are not always drawn.

Tests used:
writhing behavior = assay: Analgesic action by a writhing method using acetic acid; format: in vivo, Male mice of a ddY strain; details: sc; statistically minimum effective dose; 0.6% acetic acid ip 15 minutes after the drug, writhing counted for ten minutes; mice
5HT2 = 5HT2 (Homo sapiens, UniProt P28223); assay: Serotonin (5HT) receptor binding action (RBA; in vitro), 5HT2; details: method of JP98/01481 or JP-A 10-281752
[1] = Muscle relaxing action (in vivo); details: method of JP98/01481 or JP-A 10-281752
Source text: There are also shown a serotonin (5HT) receptor binding action (RBA; in vitro) and a muscle relaxing action (in vivo) measured according to a method described in JP98/01481 or JP-A 10-281752. (In the table, "n.t." means "not tested").

5HT1A = biological target: T1, 5HT1A (Homo sapiens, UniProt P08908); assay: Serotonin (5HT) receptor binding action (RBA; in vitro), 5HT1A; details: method of JP98/01481 or JP-A 10-281752
T1 sequence (P08908 1-422): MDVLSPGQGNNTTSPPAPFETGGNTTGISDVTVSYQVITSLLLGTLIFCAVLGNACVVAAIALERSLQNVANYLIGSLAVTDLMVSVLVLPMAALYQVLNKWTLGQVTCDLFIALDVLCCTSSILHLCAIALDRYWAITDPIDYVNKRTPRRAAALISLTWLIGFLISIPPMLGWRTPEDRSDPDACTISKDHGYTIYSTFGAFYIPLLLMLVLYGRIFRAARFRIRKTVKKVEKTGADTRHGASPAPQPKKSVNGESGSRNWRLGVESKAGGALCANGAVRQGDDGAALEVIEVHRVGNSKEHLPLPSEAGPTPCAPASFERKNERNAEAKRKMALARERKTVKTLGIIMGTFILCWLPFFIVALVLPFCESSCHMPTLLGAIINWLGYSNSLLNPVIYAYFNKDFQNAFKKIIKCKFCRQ

5HT2, sequence (P28223 whole entry, species assumed): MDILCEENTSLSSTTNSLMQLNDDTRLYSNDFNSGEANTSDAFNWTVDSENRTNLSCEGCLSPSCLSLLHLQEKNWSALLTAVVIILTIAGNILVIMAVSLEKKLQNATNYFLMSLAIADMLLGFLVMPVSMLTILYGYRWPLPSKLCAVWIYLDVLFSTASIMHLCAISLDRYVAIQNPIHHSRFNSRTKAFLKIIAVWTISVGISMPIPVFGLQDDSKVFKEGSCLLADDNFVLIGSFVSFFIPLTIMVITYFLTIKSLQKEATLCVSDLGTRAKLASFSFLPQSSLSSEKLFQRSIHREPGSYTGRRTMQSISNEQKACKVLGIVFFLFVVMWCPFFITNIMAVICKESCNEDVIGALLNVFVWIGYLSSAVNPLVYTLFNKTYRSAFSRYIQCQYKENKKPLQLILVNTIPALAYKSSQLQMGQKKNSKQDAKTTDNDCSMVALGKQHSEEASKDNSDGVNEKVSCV

Row | SMILES | Analgesic Action (minimum effective dose) (writhing behavior) [mg/kg] | Ki (5HT2) [nM] | Muscle-Relaxing Action (ip) [1] | Muscle-Relaxing Action (po) [1] | Ki (5HT1A) [nM]
1 | CC(=O)NCc1ccc2ccn(C3CCN(CCc4ccc(F)cc4)CC3)c2c1 [(1), 1-[1-(4-Fluorophenethyl)piperidin-4-yl]-6-(N-acetylaminomethyl)indole] | 0.3 | 1.38 | 0.3 mg/kg | 1 mg/kg | 0.51
2 | CCC(=O)NCc1ccc2ccn(C3CCN(CCc4ccc(F)cc4)CC3)c2c1 [(2), 1-[1-(4-fluorophenethyl)piperidin-4-yl]-6-(N-propionylaminomethyl)indole] | 3 | 2.6 | 0.3 mg/kg | 3 mg/kg | 1
3 | COc1ccc(CCN2CCC(n3ccc4ccc(CNC(C)=O)cc43)CC2)cc1 [(3), 1-[1-(4-methoxyphenethyl)piperidin-4-yl]-6-(N-acetylaminomethyl)indole] | 10 | > 20 |  |  | 0.27
4 | CC(=O)NCc1ccc2ccn(C3CCN(CCc4ccccc4F)CC3)c2c1 [(4), 1-[1-(2-fluorophenethyl)piperidin-4-yl]-6-(N-acetylaminomethyl)indole] | 3 | 0.75 |  | 10 mg/kg | 1.58
5 | O=C(Cc1ccc2ccn(C3CCN(CCc4ccc(F)cc4)CC3)c2c1)NCCO [(6), 1-[1-(4-fluorophenethyl)piperidin-4-yl]-6-(N-hydroxyethylamidemethyl)indole] | > 10 |  |  | 10 mg/kg | 
6 | CN(C)C(=O)Cc1ccc2ccn(C3CCN(CCc4ccc(F)cc4)CC3)c2c1 [(7), 1-[1-(4-fluorophenethyl)piperidin-4-yl]-6-(N,N-dimethylamidemethyl)indole oxalate] | > 10 |  |  |  | 
7 | NC(=O)Cc1ccc2ccn(C3CCN(CCc4ccc(F)cc4)CC3)c2c1 [(8), 1-[1-(4-fluorophenethyl)piperidin-4-yl]-6-amidemethylindole] | > 3 |  |  | 3 mg/kg | 
8 | CNC(=O)Cc1ccc2ccn(C3CCN(CCc4ccc(F)cc4)CC3)c2c1 [(9), 1-[1-(4-fluorophenethyl)piperidin-4-yl]-6-(N-methylamidemethyl)indole] | 1 |  | 0.3 mg/kg | 3 mg/kg | 
9 | CNC(=O)Cc1ccc2ccn(C3CCN(CCc4ccccc4F)CC3)c2c1 [(10), 1-[1-(2-fluorophenethyl)piperidin-4-yl]-6-(N-methylamidemethyl)indole] | 3 | 1.23 | 3 mg/kg | < 1 mg/kg | 4.02
10 | CCNC(=O)Cc1ccc2ccn(C3CCN(CCc4ccccc4F)CC3)c2c1 [(11), 1-[1-(2-fluorophenethyl)piperidin-4-yl]-6-(N-ethylamidemethyl)indole] | 3 |  |  | 10 mg/kg | 
11 | O=C(Cc1ccc2ccn(C3CCN(CCc4ccccc4F)CC3)c2c1)NCCO [(12), 1-[1-(2-fluorophenethyl)piperidin-4-yl]-6-(N-hydroxyethylamidemethyl)indole] | 10 |  |  | > 10 mg/kg | 
12 | NC(=O)Cc1ccc2ccn(C3CCN(CCc4ccccc4F)CC3)c2c1 [(13), 1-[1-(2-fluorophenethyl)piperidin-4-yl]-6-amidemethylindole] | 3 | 2.81 | 1 mg/kg | 3 mg/kg | 0.59
13 | CC(=O)NCc1ccc2c(c1)N(C1CCN(CCc3ccc(F)cc3)CC1)CC2 [(14), 1-[1-(4-fluorophenethyl)piperidin-4-yl]-6-(N-acetylaminomethyl)indoline] | 0.3 | 0.43 | 0.3 mg/kg | 0.3 mg/kg | 6.43
14 | CCN1CCN(c2nc(-c3ccc(OC)cc3)cc3ccccc23)CC1 [(15), 1-(4-ethylpiperazin-1-yl)-3-(4-methoxyphenyl)isoquinoline] | 3 | 11.1 |  |  | 59.9
15 | CCN1CCN(c2nc(-c3ccc(OCCO)cc3)cc3ccccc23)CC1 [(16), 1-(4-ethylpiperazin-1-yl)-3-(4-hydroxyethoxyphenyl)isoquinoline] | 1 | 4.2 | 1 mg/kg | 3 mg/kg | 31.5
16 | CCC(O)c1ccc(-c2cc3ccccc3c(N3CCN(CC)CC3)n2)cc1 (stereo not drawn) [(17), 1-(4-ethylpiperazin-1-yl)-3-[4-(1-hydroxypropyl)phenyl]isoquinoline] | 1 | 1.6 | 1 mg/kg | 10 mg/kg | 6.9
17 | CCCNC(=O)c1ccc(-c2cc3ccccc3c(N3CCN(CC)CC3)n2)cc1 [(18), 1-(4-ethylpiperazin-1-yl) -3-[4-(N-propylamide)phenyl]isoquinoline hydrochloride] | 1 | 1.1 | > 10 mg/kg | 3 mg/kg | 14.6
18 | CCN1CCN(c2nc(-c3ccc(CCC(C)(C)O)c(F)c3)cc3ccccc23)CC1.Cl [(19), 1-(4-ethylpiperazin-1-yl)-3-[3-fluoro-4-(3-hydroxy-3-methylbutyl)phenyl]isoquinoline hydrochloride] | 1 | 0.7 | < 10 mg/kg | 3 mg/kg | 31.2
19 | CCN1CCN(c2nc(-c3ccc(CCCO)c(OC)c3)cc3ccccc23)CC1.Cl [(20), 1-(4-ethylpiperazin-1-yl)-3-(3-methoxy-4-hydroxypropylphenyl)isoquinoline hydrochloride] | 3 | 10.9 |  | 10 mg/kg | 7.9
20 | CCN1CCN(c2nc(-c3ccc(OCCO)c(C#N)c3)cc3ccccc23)CC1.Cl [(21), 1-(4-ethylpiperazin-1-yl)-3-(3-cyano-4-hydroxyethoxyphenyl)isoquinoline hydrochloride] | 1 | 4.5 | 10 mg/kg |  | 13.4
21 | CCN1CCN(c2nc(-c3cccc(CCCO)c3)cc3ccccc23)CC1 [(22), 1-(4-ethylpiperazin-1-yl)-3-(3-hydroxypropylphenyl)isoquinoline hydrochloride] | 3 | 17.4 |  |  | 54.5
22 | CCCS(=O)(=O)NCc1ccc(-c2cc3ccccc3c(N3CCN(CC)CC3)n2)cc1Cl.Cl [(23), 1-(4-ethylpiperazin-1-yl)-3-(3-chloro-4-propylsulfonylaminomethylphenyl)isoquinoline hydrochloride] | 3 | 0.7 |  | > 30 mg/kg | 0.9
23 | CCN1CCN(c2nc(-c3ccc(OCC(C)O)cc3)cc3sccc23)CC1.Cl (stereo not drawn) [(24), 4-(4-ethylpiperazin-1-yl)-6-[4-(2-hydroxypropoxy)phenyl]thieno[3,2-c]pyridine hydrochloride] | 1 | 0.9 | 1 mg/kg | 3 mg/kg | 27.9
24 | CC(C)(O)COc1ccc(-c2cc3sccc3c(N3CCN(CCO)CC3)n2)cc1.Cl [(27), 4-(4-hydroxyethylpiperazin-1-yl)-6-[4-(2-hydroxy-2-methylpropoxy)phenyl]thieno[3,2-c]pyridine hydrochloride] | 1 | 0.35 |  |  | 1530
25 | COc1cccc(C(O)C2CCN(CCc3ccc(F)cc3)CC2)c1OC (stereo not drawn) [MDL-100,907, reference compound] | 3 |  | 0.3 mg/kg | 1 mg/kg | 
26 | CN1CC[C@]23c4c5ccc(O)c4O[C@H]2[C@@H](O)C=C[C@H]3[C@H]1C5.Cl [Morphine Hydrochloride, morphine hydrochloride, reference compound] | 1 |  | Ineffective (Strain Induced) | Ineffective (Strain Induced) | 
27 | COc1ccccc1N1CCN(CCN(C(=O)C2CCCCC2)c2ccccn2)CC1 [WAY-100,635, reference compound] | 3 | > 200 | > 10 mg/kg |  | 
